Test results: ChEMBL document CHEMBL3217747, “Discovery and pharmacological characterization of a selective delta opiate receptor antagonist (CP-646,777)” (Medchemcomm, 2011)

Legend:
[1] = molecular target: Mu-type opioid receptor (Homo sapiens, UniProt P35372); assay: Displacement of [3H]diprenorphine from human mu opioid receptor expressed in CHO cells by liquid scintillation counting analysis; assay type: cell-based
[2] = In vitro clearance in human liver microsomes; assay type: ADME; settings: read-out: CLH
[3] = molecular target: Kappa-type opioid receptor (Homo sapiens, UniProt P41145); assay: Displacement of [3H]diprenorphine from human kappa opioid receptor expressed in CHO cells by liquid scintillation counting analysis; assay type: cell-based
[4] = Ratio of ED50 for Reversal of SNC-80 induced hypothermia in ICR mouse over Ki for human delta opioid receptor
[5] = molecular target: T1, Delta-type opioid receptor (Homo sapiens, UniProt P41143); assay: Antagonist activity at delta opioid receptor (unknown origin) assessed as [35S]-GTPgammaS binding by liquid scintillation counting analysis; assay type: functional
[6] = system: MDCK; assay: Efflux ratio of apparent permeability across […] in MDCK cells expressing human P-gp; assay type: ADME, cell-based, Canis lupus familiaris; settings: dog
[7] = species: Mus musculus; assay: Reversal of SNC-80 induced hypothermia in ICR mouse assessed as rectal temperature; assay type: functional
[8] = Plasma concentration in mouse at 32 mg/kg, sc after 4 hrs; assay type: ADME, organism-based; set-up: dose 32 mg/kg, route subcutaneous
[9] = Ratio of plasma concentration in mouse over Ki for human delta opioid receptor; assay type: ADME, cell-free
[10] = system: Cerebrospinal fluid; assay: Drug uptake in rat cerebrospinal fluid at 32 mg/kg, sc; assay type: ADME, organism-based; set-up: dose 32 mg/kg, route subcutaneous; settings: in vivo, read-out: Drug uptake
[11] = system: Cerebrospinal fluid; assay: Drug uptake in rat cerebrospinal fluid at 10 mg/kg, sc; assay type: ADME, organism-based; set-up: dose 10 mg/kg, route subcutaneous; settings: in vivo, read-out: Drug uptake
[12] = system: Brain; assay: Ratio of drug uptake from wild type P-gp mouse brain to P-gp deficient mouse brain compound treated subcutaneously; assay type: ADME; settings: sc
[13] = Fraction unbound in mouse at 32 mg/kg, sc after 4 hrs; assay type: ADME, organism-based; set-up: dose 32 mg/kg, route subcutaneous; settings: in vivo
[14] = molecular target: T1, Delta-type opioid receptor; assay: Displacement of [3H]diprenorphine from human delta opioid receptor expressed in CHO cells by liquid scintillation counting analysis; assay type: cell-based

Chain of Mu-type opioid receptor (P35372 whole entry): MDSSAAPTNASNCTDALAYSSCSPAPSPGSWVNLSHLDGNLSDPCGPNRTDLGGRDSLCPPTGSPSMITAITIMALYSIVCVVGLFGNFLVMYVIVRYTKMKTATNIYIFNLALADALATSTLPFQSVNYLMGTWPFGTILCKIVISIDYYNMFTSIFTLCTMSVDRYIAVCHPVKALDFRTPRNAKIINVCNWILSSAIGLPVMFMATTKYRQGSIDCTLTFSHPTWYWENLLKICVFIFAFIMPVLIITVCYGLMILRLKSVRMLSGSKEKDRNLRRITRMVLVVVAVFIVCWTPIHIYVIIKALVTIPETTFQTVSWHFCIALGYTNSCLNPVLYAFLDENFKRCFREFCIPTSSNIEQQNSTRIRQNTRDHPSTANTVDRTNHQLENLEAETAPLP
Chain of Kappa-type opioid receptor (P41145 whole entry): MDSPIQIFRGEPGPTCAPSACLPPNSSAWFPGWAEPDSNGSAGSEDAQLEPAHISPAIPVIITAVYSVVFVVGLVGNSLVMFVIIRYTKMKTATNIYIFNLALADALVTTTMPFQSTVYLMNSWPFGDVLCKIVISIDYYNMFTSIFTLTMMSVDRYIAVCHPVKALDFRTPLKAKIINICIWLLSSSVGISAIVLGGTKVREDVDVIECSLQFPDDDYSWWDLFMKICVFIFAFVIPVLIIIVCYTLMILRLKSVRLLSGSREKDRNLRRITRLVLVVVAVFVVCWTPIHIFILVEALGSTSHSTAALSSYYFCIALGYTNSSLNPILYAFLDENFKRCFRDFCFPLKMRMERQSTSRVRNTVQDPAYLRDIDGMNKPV
T1 sequence (P41143 whole entry): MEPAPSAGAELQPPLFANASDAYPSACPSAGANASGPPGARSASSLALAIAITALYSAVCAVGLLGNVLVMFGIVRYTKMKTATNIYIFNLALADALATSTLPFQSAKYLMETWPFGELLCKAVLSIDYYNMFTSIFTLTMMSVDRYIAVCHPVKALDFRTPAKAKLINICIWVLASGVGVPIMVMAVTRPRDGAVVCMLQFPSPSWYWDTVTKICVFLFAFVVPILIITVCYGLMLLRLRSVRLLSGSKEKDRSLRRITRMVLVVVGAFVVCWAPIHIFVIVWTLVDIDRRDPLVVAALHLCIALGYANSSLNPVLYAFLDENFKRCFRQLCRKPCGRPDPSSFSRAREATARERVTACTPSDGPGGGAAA

| SMILES | Ki [1] [nM] | CLint scaled [2] [mL/min/kg] | Ki [3] [nM] | Ratio [4] | IC50 [5] [nM] | Ratio [6] | ED50 [7] [mg/kg] | concentration at 4 h [8] [nM] | Ratio [9] | concentration [10] [nM] | concentration [11] [nM] | Ratio [12] | fraction unbound at 4 h [13] | Ki [14] [nM] |
| --- | --- | --- | --- | --- | --- | --- | --- | --- | --- | --- | --- | --- | --- | --- |
| CCCC(C)CN1CCC(c2ccc(C(=O)N(C)C)cc2)(c2cccc(O)c2)CC1 (stereo not drawn) | > 890 | 80 |  |  |  |  |  |  |  |  |  |  |  |  |
| CCC[C@@H](C)CN1CCC(c2cccc(O)c2)(c2ncc(C(=O)N(CC)CC)cn2)CC1 | 830 | 48 | 142 | 15 | 35 | 13 | 3 | 7500 | 100 | 300 | 103 | 6.5 | 0.3 | 2 |
| CCCC(C)CN1CCC(c2cccc(C(N)=O)c2)(c2ncc(C(=O)N(CC)CC)cn2)CC1 (stereo not drawn) | > 890 | 13 | 65 |  | 35 | 13 |  |  |  |  |  |  |  | 2 |
| CCCC(C)CN1CCC(c2cccc(O)c2)(c2ncc(C(=O)N(CC)CC)cn2)CC1 (stereo not drawn) | > 890 | 40 | > 890 |  | 21 | 13 |  |  |  |  |  |  |  | 6 |
